Experimental data published in patent US20230099344A1, “COMPOUNDS AND METHODS FOR THE TARGETED DEGRADATION OF IRAK-4” (Arvinas Operations, Inc., priority 2021, published 2023).

Assays:
Format in all cases: cell-based
IL6 = test: IL-1β stimulated IL6 inhibition assay in PBMC; details: PBMC, human PBMCs, IL-1β stimulation, compound overnight, IL6 by MSD after 24 hrs; for IC50: Homo sapiens, 24 h, read-out: IL1β stim IL6 inhibition IC50; for Emax: read-out: IL1β stim IL6 inhibition Ymax
Method: (§1) IL-1β, LPS, or R848 Stimulated IL6 Inhibition and IL-1β Stimulated IL8 Inhibition Assay
(§2) Human PBMC cells were seeded at 2.0×10^6 cells/mL, treated with compound overnight, and dosed with the EC50 concentration of each stimulant (either IL-1B. LPS, or R848) was determined for each donor. After 24 hrs, media was collected and analyzed by MSD for IL6 and/or IL8 levels.

IL8 = test: IL-1β stimulated IL8 inhibition assay in PBMC; details: human PBMCs, IL-1β stimulation, compound overnight, IL8 by MSD after 24 hrs; for IC50: read-out: IL1β stim IL8 inhibition IC50; for Emax: read-out: IL1β stim IL8 inhibition Ymax
Method: as §1, §2

IRAK-4 [1] = target: T1, IRAK-4 (Homo sapiens, UniProt Q9NWZ3); test: IRAK-4 ELISA, OCI-Ly10 degradation; parameters: endogenous in cells; details: treated overnight; for Dmax: OCI-Ly10, OCI-Ly10 cells; for DC50: OCI-Ly10 cells
T1 sequence (Q9NWZ3 1-460): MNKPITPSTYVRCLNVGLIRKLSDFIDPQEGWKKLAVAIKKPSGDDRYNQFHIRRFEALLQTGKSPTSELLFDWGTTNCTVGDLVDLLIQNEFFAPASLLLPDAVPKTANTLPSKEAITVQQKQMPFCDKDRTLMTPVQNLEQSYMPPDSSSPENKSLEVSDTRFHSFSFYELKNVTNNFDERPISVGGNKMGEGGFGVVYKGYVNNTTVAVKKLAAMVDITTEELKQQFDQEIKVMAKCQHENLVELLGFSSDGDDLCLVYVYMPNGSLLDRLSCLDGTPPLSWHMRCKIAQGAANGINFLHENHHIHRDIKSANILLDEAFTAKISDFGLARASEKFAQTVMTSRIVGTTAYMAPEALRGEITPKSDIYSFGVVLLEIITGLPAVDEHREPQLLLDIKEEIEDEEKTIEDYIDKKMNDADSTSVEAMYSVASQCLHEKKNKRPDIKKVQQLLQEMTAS
Method in brief: (§3)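 IRAK-4 levels measured by matched-antibody-pair ELISA on lysates after overnight compound exposure. Cells seeded same day: PBMC at 2×10^6/ml, OCI-Ly10 at 1×10^6/ml.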

IRAK-4 [2] = target: T1, IRAK-4; test: IRAK-4 ELISA, PBMC degradation; parameters: endogenous in cells; host or cells: PBMC; details: treated overnight
Method in brief: as §3

SMILES	IC50 (IL6) [nM]	IC50 (IL8) [nM]	Dmax (IRAK-4 [1]) [%]	DC50 (IRAK-4 [1]) [nM]	DC50 (IRAK-4 [2]) [nM]	Dmax (IRAK-4 [2]) [%]	PBMC DC90 (IRAK-4 [2])	Emax (IL6) [%]	Emax (IL8) [%]
O=C1CCC(N2C(=O)c3ccc(N4CCC(CN5CC[C@H](n6cc7cc(NC(=O)c8cnn9cccnc89)c(OCC8CC8)cc7n6)[C@@H](F)C5)CC4)cc3C2=O)C(=O)N1 (stereo partly shown) [Example 184]	10 to 50	10 to 50	< 70	< 10	1 to 5	80 to 90	C (C represents a DC90 value ≥25.0 nM and <50 nM)	80 to 90	< 70
COc1cc2nn(C3CCN(CC4(F)CN(c5ccc6c(c5)C(=O)N(C5CCC(=O)NC5=O)C6=O)C4)CC3)cc2cc1NC(=O)c1cnn2cccnc12 (stereo not shown) [Example 207]	10 to 50	50 to 100	≥ 90	< 10	1 to 5	≥ 90	B (B represents a DC90 value ≥10.0 nM and <25.0 nM)	≥ 90	< 70
COc1cc2nn(C3CCN(CC4(F)CN(c5ccc6c(c5)CN(C5CCC(=O)NC5=O)C6=O)C4)CC3)cc2cc1NC(=O)c1cnn2cccnc12 (stereo not shown) [Example 274]	10 to 50	50 to 100	< 70	< 10	< 1	80 to 90	A (A represents a DC90 value <10.0 nM)	≥ 90	70 to 80
O=C1CCC(N2Cc3cc(N4CCC(F)(CN5CCC(n6cc7cc(NC(=O)c8cnn9cccnc89)c(OCC8CC8)cc7n6)CC5)CC4)ccc3C2=O)C(=O)N1 (stereo not shown) [Example 278]	10 to 50	10 to 50	80 to 90	< 10	< 1	80 to 90	A (A represents a DC90 value <10.0 nM)	≥ 90	≥ 90
CC(C)Oc1cc2c(cc1NC(=O)c1cnn3cccnc13)CN(C1CCN(C3CCN(c4ccc5c(c4)CN(C4CCC(=O)NC4=O)C5=O)CC3)CC1)C2=O (stereo not shown) [Example 282]	< 10	10 to 50	≥ 90	< 10	< 1	≥ 90	A (A represents a DC90 value <10.0 nM)	≥ 90	< 70
O=C1CCC(NC(=O)c2ccc(N3CC(CN4CCC(n5cc6cc(NC(=O)c7cnn8cccnc78)c(OCC7CC7)cc6n5)CC4)C3)cc2F)C(=O)N1 (stereo not shown) [Example 287]	50 to 100	≥ 100	≥ 90	< 10	1 to 5	≥ 90	B (B represents a DC90 value ≥10.0 nM and <25.0 nM)	≥ 90	< 70
COc1cc2nn([C@H]3CC[C@H](N(C)C4CN(c5ccc6c(c5)C(=O)N(C5CCC(=O)NC5=O)C6=O)C4)CC3)cc2cc1NC(=O)c1cnn2cccnc12 (stereo partly shown) [Example 334]	< 10	10 to 50	≥ 90	< 10	< 1	≥ 90	A (A represents a DC90 value <10.0 nM)	≥ 90	< 70
COc1cc2nn([C@H]3CC[C@H](N(C)C4CN(c5ccc6c(c5)CN(C5CCC(=O)NC5=O)C6=O)C4)CC3)cc2cc1NC(=O)c1cnn2cccnc12 (stereo partly shown) [Example 337]	< 10	< 10	≥ 90	< 10	1 to 5	≥ 90	A (A represents a DC90 value <10.0 nM)	≥ 90	< 70
COc1cc2nn([C@H]3CC[C@H](N(C)CC#Cc4ccc5c(c4)C(=O)N(C4CCC(=O)NC4=O)C5=O)CC3)cc2cc1NC(=O)c1cnn2cccnc12 (stereo partly shown) [Example 338]	< 10	10 to 50	≥ 90	< 10	< 1	≥ 90	A (A represents a DC90 value <10.0 nM)	≥ 90	< 70
CN(C1CN(c2ccc3c(c2)CN(C2CCC(=O)NC2=O)C3=O)C1)[C@H]1CC[C@H](n2cc3cc(NC(=O)c4cnn5cccnc45)c(OCC4CC4)cc3n2)CC1 (stereo partly shown) [Example 339]	< 10	10 to 50	≥ 90	< 10	< 1	≥ 90	A (A represents a DC90 value <10.0 nM)	≥ 90	70 to 80
COc1cc2nn(C3CCN(CC4CN(c5cccc6c5n(C)c(=O)n6C5CCC(=O)NC5=O)C4)CC3)cc2cc1NC(=O)c1cnn2cccnc12 (stereo not shown) [Example 379]	< 10	10 to 50	≥ 90	< 10	< 1	≥ 90	A (A represents a DC90 value <10.0 nM)	80 to 90	70 to 80

Continued, in another order:

IC50 (IL6) [nM]	IC50 (IL8) [nM]	Dmax (IRAK-4 [1]) [%]	DC50 (IRAK-4 [1]) [nM]	DC50 (IRAK-4 [2]) [nM]	Dmax (IRAK-4 [2]) [%]	PBMC DC90 (IRAK-4 [2])	SMILES	Emax (IL6) [%]	Emax (IL8) [%]
10 to 50	≥ 100	≥ 90	< 10	< 1	≥ 90	A (A represents a DC90 value <10.0 nM)	COc1cc2nn(C3CCN(CC4CN(c5ccc6c(c5)C(=O)N(C5CCC(=O)NC5=O)C6=O)C4)CC3)cc2cc1NC(=O)c1cnn2cccnc12 (stereo not shown) [Example 202]	80 to 90	
10 to 50	50 to 100	≥ 90	< 10	< 1	≥ 90	A (A represents a DC90 value <10.0 nM)	COc1cc2nn([C@H]3CC[C@H](OC4CN(c5ccc6c(c5)C(=O)N(C5CCC(=O)NC5=O)C6=O)C4)CC3)cc2cc1NC(=O)c1cnn2cccnc12 (stereo partly shown) [Example 212]	80 to 90	< 70
10 to 50	≥ 100	70 to 80	< 10	< 1	≥ 90	A (A represents a DC90 value <10.0 nM)	O=C1CCC(N2Cc3cc(N4CC(F)(CN5CCC(n6cc7cc(NC(=O)c8cnn9cccnc89)c(OCC8CC8)cc7n6)CC5)C4)ccc3C2=O)C(=O)N1 (stereo not shown) [Example 279]	≥ 90	80 to 90
< 10	10 to 50	≥ 90	< 10	1 to 5	80 to 90	A (A represents a DC90 value <10.0 nM)	COc1c(N2CC(CN3CCC(n4cc5cc(NC(=O)c6cnn7cccnc67)c(OCC6CC6)cc5n4)CC3)C2)ccc2c1C(=O)N(C1CCC(=O)NC1=O)C2=O (stereo not shown) [Example 285, N-(6-(cyclopropylmethoxy)-2-(1-((1-(2-(2,6-dioxopiperidin-3-yl)-4-methoxy-1,3-dioxoisoindolin-5-yl)azetidin-3-yl)methyl)piperidin-4-yl)-2H-indazol-5-yl)pyrazolo[1,5-a]pyrimidine-3-carboxamide]	80 to 90	< 70
10 to 50	50 to 100	≥ 90	< 10	< 1	≥ 90	A (A represents a DC90 value <10.0 nM)	O=C1CCC(NC(=O)c2ccc(N3CCC(CN4CCC(n5cc6cc(NC(=O)c7cnn8cccnc78)c(OCC7CC7)cc6n5)CC4)CC3)cc2F)C(=O)N1 (stereo not shown) [Example 288]	≥ 90	70 to 80
< 10	≥ 100	≥ 90	< 10	< 1	≥ 90	A (A represents a DC90 value <10.0 nM)	COc1cc2nn([C@H]3CC[C@H](N(C)C4CCN(c5ccc6c(c5)C(=O)N(C5CCC(=O)NC5=O)C6=O)CC4)CC3)cc2cc1NC(=O)c1cnn2cccnc12 (stereo partly shown) [Example 335]	≥ 90	
